Key:
IKZF3 = target: T1, IKZF3 (Homo sapiens, UniProt Q96SW2+Q9UKT9); assay: Western-blot assay of substrate protein degradation in hPBMCs, IKZF3; type: cell-based; details: 24 hours of compound treatment
T1 construct: endogenous in cells; host or cells: hPBMCs (Milecell Biotechnologies)

CK1α = target: T2, CK1α (Homo sapiens, UniProt P48729+Q96SW2); assay: Western-blot assay of substrate protein degradation in hPBMCs, CK1α; type: cell-based; details: 24 hours of compound treatment
T2 construct: endogenous in cells; host or cells: hPBMCs (Milecell Biotechnologies)

[1] = target: T3, human Cereblon WT GST-tagged protein (Homo sapiens, UniProt Q96SW2); assay: CRBN-binding affinity by HTRF (CEREBLON BINDING kit); details: HTRF inhibitory activity, CEREBLON BINDING kit; read-out: HTRF IC50
T3 construct: purchased CISBIO 64BDCRBNPEH

IKZF2 = target: T4, IKZF2 (Homo sapiens, UniProt Q96SW2+Q9UKS7); assay: Western-blot assay of substrate protein degradation in hPBMCs, IKZF2; type: cell-based; details: 24 hours of compound treatment
T4 construct: endogenous in cells; host or cells: hPBMCs (Milecell Biotechnologies)

WEE1 = target: T5, WEE1 (Homo sapiens, UniProt P30291+Q96SW2); assay: Western-blot assay of substrate protein degradation in hPBMCs, WEE1; type: cell-based; details: 24 hours of compound treatment
T5 construct: endogenous in cells; host or cells: hPBMCs (Milecell Biotechnologies)

GSPT1 = target: T6, GSPT1 (Homo sapiens, UniProt P15170+Q96SW2); assay: Western-blot assay of substrate protein degradation in hPBMCs, GSPT1; type: cell-based; details: 24 hours of compound treatment
T6 construct: endogenous in cells; host or cells: hPBMCs (Milecell Biotechnologies)

IKZF1 = target: T7, IKZF1 (Homo sapiens, UniProt Q13422+Q96SW2); assay: Western-blot assay of substrate protein degradation in hPBMCs, IKZF1; type: cell-based; details: 24 hours of compound treatment
T7 construct: endogenous in cells; host or cells: hPBMCs (Milecell Biotechnologies)

[2] = 50 nM and 500 nM tested (concentration behind the class not stated)
[3] = compounds tested at 50 nM and 500 nM (concentration of the table not stated)

T2 sequence (P48729 whole entry): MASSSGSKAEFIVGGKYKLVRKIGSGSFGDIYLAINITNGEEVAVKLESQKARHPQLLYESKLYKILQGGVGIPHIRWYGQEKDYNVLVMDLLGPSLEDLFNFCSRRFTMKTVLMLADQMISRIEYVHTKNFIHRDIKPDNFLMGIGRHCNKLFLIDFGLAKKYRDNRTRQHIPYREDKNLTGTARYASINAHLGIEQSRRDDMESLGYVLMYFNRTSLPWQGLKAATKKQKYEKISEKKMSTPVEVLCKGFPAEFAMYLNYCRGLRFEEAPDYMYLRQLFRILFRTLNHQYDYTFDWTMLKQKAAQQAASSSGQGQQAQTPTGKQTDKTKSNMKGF
T2 sequence (Q96SW2 whole entry): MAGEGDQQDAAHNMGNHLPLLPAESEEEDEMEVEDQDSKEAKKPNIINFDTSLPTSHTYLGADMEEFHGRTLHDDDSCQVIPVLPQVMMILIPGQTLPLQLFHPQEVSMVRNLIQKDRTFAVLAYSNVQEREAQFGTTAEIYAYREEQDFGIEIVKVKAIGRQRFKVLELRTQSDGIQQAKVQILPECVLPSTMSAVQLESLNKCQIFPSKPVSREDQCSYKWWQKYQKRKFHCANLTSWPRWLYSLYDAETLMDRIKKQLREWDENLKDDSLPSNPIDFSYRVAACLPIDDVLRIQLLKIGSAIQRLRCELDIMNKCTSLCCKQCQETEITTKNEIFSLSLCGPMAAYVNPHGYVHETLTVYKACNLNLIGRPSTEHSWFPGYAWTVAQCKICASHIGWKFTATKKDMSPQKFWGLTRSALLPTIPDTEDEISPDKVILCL
T2 sequence (Q16531 whole entry partner): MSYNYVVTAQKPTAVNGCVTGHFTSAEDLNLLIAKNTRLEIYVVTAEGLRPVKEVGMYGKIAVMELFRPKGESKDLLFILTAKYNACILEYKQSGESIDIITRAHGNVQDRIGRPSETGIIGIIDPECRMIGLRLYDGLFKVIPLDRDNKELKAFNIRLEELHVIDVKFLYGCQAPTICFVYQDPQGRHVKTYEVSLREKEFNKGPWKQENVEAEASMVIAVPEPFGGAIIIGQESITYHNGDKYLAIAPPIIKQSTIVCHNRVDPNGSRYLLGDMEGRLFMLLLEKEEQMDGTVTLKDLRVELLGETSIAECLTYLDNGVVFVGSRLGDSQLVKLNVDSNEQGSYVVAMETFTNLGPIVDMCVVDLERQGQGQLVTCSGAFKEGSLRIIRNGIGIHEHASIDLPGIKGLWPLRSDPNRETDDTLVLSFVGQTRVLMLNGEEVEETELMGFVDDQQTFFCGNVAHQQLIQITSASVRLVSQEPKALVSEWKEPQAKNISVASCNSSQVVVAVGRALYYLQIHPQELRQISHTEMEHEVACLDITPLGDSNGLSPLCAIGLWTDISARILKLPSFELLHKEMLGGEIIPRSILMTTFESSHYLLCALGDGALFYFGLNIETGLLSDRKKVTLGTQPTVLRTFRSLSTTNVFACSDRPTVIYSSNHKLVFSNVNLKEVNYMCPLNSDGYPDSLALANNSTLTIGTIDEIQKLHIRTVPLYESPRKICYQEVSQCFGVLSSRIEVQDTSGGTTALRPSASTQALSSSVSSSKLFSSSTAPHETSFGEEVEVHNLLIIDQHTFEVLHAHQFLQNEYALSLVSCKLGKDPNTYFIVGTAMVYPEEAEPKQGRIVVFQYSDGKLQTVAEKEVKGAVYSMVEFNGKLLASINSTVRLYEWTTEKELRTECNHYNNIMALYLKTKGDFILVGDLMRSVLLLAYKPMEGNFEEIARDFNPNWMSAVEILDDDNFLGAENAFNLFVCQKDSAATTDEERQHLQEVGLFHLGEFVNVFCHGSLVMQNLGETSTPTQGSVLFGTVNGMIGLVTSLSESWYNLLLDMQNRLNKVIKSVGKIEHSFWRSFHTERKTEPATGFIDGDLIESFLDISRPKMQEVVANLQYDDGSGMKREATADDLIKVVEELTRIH
T3 sequence (Q96SW2 whole entry): as the sequence (Q96SW2 whole entry) above
T1 sequence (Q9UKT9 whole entry): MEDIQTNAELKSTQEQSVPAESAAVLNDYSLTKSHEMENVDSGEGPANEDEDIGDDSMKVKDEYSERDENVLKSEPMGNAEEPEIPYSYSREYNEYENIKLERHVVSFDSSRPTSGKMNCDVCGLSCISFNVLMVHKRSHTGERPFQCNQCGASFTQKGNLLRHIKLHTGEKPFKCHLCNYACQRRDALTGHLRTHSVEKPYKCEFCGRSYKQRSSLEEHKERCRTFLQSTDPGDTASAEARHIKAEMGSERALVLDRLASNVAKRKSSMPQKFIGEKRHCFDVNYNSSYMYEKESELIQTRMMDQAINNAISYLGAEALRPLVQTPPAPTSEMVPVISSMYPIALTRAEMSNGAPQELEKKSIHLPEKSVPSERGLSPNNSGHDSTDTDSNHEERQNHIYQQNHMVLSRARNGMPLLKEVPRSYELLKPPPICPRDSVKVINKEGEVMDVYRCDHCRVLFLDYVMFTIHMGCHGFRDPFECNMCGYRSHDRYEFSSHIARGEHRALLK
T1 sequence (Q96SW2 whole entry): as the sequence (Q96SW2 whole entry) above
T1 sequence (Q16531 whole entry partner): as the sequence (Q16531 whole entry partner) above
T5 sequence (P30291 whole entry): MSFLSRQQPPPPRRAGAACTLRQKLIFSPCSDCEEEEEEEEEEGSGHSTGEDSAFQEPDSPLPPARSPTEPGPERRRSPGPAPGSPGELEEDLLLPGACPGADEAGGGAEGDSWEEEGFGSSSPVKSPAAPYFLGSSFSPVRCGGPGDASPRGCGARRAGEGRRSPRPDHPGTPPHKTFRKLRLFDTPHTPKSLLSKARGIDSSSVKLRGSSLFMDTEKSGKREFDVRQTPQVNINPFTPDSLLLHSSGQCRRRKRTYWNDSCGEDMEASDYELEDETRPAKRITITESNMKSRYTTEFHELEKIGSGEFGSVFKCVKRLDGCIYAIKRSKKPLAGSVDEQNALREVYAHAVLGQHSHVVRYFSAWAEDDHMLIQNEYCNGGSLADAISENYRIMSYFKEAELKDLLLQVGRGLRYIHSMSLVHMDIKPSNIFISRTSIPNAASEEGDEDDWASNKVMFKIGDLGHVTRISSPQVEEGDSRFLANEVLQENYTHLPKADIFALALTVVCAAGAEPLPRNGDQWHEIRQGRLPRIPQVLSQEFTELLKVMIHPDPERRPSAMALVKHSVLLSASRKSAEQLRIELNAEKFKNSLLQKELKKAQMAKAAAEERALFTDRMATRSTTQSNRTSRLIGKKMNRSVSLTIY
T5 sequence (Q96SW2 whole entry): as the sequence (Q96SW2 whole entry) above
T5 sequence (Q16531 whole entry partner): as the sequence (Q16531 whole entry partner) above
T7 sequence (Q13422 whole entry): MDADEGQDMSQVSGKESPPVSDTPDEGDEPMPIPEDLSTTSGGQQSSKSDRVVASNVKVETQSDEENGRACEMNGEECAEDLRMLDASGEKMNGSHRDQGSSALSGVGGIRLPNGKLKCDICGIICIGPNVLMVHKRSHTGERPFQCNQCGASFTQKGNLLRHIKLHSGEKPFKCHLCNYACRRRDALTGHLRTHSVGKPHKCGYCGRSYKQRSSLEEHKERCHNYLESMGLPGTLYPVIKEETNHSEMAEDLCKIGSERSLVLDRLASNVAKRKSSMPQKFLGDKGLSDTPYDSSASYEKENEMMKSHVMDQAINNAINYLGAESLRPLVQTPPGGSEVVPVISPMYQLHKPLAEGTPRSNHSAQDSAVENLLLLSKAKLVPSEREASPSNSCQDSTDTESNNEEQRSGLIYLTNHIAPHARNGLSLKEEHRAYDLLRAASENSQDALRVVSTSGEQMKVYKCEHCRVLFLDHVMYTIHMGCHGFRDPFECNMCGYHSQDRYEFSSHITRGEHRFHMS
T7 sequence (Q96SW2 whole entry): as the sequence (Q96SW2 whole entry) above
T7 sequence (Q16531 whole entry partner): as the sequence (Q16531 whole entry partner) above
T6 sequence (P15170 whole entry): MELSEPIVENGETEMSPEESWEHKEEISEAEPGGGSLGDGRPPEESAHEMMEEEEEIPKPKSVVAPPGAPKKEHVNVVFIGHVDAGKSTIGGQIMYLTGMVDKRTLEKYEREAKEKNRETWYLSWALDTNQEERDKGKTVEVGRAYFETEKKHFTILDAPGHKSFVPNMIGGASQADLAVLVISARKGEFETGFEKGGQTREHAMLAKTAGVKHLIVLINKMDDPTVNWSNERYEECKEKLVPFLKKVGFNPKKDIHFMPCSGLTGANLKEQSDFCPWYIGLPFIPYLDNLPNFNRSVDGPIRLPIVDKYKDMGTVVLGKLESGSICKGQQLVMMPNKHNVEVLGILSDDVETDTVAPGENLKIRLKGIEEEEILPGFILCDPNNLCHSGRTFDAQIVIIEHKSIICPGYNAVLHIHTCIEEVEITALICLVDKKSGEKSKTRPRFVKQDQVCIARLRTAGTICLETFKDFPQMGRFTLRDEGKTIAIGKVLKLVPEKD
T6 sequence (Q96SW2 whole entry): as the sequence (Q96SW2 whole entry) above
T6 sequence (Q16531 whole entry partner): as the sequence (Q16531 whole entry partner) above

Structure (SMILES) | IKZF3 substrate protein remaining % (IKZF3; [2]) | CK1a substrate protein remaining % (CK1α; [2]) | IC50 [1] [µM] | IKZF2 substrate protein remaining % (IKZF2; [2]) | Weel substrate protein remaining % (WEE1; [2]) | GSPT1 substrate protein remaining % (GSPT1; [2]) | IKZF 1 substrate protein remaining % (IKZF1; [2]) | IKZF3 substrate protein remaining % (IKZF3; [3]) | CK1a substrate protein remaining % (CK1α; [3]) | IKZF2 substrate protein remaining % (IKZF2; [3]) | Weel substrate protein remaining % (WEE1; [3]) | GSPT1 substrate protein remaining % (GSPT1; [3]) | IKZF 1 substrate protein remaining % (IKZF1; [3])
Cc1nc(N2CCN(Cc3ccc4c(c3)C(=O)N(C3CCC(=O)NC3=O)C4=O)CC2)c2c3c(sc2n1)CCCC3 (stereo not drawn) [GT-06348, 2-(2,6-dioxopiperidin-3-yl)-5-((4-(2-methyl-5,6,7,8-tetrahydrobenzo[4,5]thieno[2,3-d]pyrimidin-4-yl)piperazin-1-yl)methyl)isoindoline-1,3-dione] | A (0% ≤ substrate protein remaining % ≤ 80%) | A (0% ≤ substrate protein remaining % ≤ 80%) | 1 to 1.5 | A (0% ≤ substrate protein remaining % ≤ 80%) | A (0% ≤ substrate protein remaining % ≤ 80%) | A (0% ≤ substrate protein remaining % ≤ 80%) | A (0% ≤ substrate protein remaining % ≤ 80%) |  |  |  |  |  | 
O=C1CCC(N2Cc3cc(CN4CCC(c5ccnc(F)c5F)CC4)ccc3C2=O)C(=O)N1 (stereo not drawn) [GT-04556, 3-(5-((4-(2,3-difluoropyridin-4-yl)piperidin-1-yl)methyl)-1-oxoisoindolin-2-yl)piperidine-2,6-dione] |  |  | 0.5 to 1 |  |  |  |  | A (0% ≤ substrate protein remaining % ≤ 80%) | A (0% ≤ substrate protein remaining % ≤ 80%) | A (0% ≤ substrate protein remaining % ≤ 80%) | A (0% ≤ substrate protein remaining % ≤ 80%) | A (0% ≤ substrate protein remaining % ≤ 80%) | A (0% ≤ substrate protein remaining % ≤ 80%)
O=C1CCC(N2C(=O)c3ccc(CN4CC=C(c5ncnc6sccc56)CC4)cc3C2=O)C(=O)N1 (stereo not drawn) [GT-06653, 2-(2,6-dioxopiperidin-3-yl)-5-((4-(thieno[2,3-d]pyrimidin-4-yl)-3,6-dihydropyridin-1(2H)-yl)methyl)isoindoline-1,3-dione] | A (0% ≤ substrate protein remaining % ≤ 80%) | B (80%< substrate protein remaining %≤ 100%) | 0.5 to 1 | B (80%< substrate protein remaining %≤ 100%) | A (0% ≤ substrate protein remaining % ≤ 80%) | A (0% ≤ substrate protein remaining % ≤ 80%) | A (0% ≤ substrate protein remaining % ≤ 80%) |  |  |  |  |  | 
O=C1CCC(N2C(=O)c3ccc(CN4CCN(c5ncc6ccsc6n5)CC4)cc3C2=O)C(=O)N1 (stereo not drawn) [GT-06567, 2-(2,6-dioxopiperidin-3-yl)-5-((4-(thieno[2,3-d]pyrimidin-2-yl)piperazin-1-yl)methyl)isoindoline-1,3-dione] | B (80%< substrate protein remaining %≤ 100%) | A (0% ≤ substrate protein remaining % ≤ 80%) | 1 to 1.5 | B (80%< substrate protein remaining %≤ 100%) | A (0% ≤ substrate protein remaining % ≤ 80%) | A (0% ≤ substrate protein remaining % ≤ 80%) | B (80%< substrate protein remaining %≤ 100%) |  |  |  |  |  | 
O=C1CCC(N2Cc3cc(CN4CC5CCC(C4)N5c4cccc(Cl)c4Cl)ccc3C2=O)C(=O)N1 (stereo not drawn) [GT-04899, 3-(5-((8-(2,3-dichlorophenyl)-3,8-diazabicyclo[3.2.1]octan-3-yl)methyl)-1-oxoisoindolin-2-yl)piperidine-2,6-dione] |  |  | 0.5 to 1 |  |  |  |  | B (80%< substrate protein remaining %≤ 100%) | B (80%< substrate protein remaining %≤ 100%) | B (80%< substrate protein remaining %≤ 100%) | B (80%< substrate protein remaining %≤ 100%) | B (80%< substrate protein remaining %≤ 100%) | A (0% ≤ substrate protein remaining % ≤ 80%)
O=C1CCC(N2C(=O)c3ccc(CN4CC=C(c5c[nH]c6cc(F)ccc56)CC4)cc3C2=O)C(=O)N1 (stereo not drawn) [GT-06634, 2-(2,6-dioxopiperidin-3-yl)-5-((4-(6-fluoro-1H-indol-3-yl)-3,6-dihydropyridin-1(2H)-yl)methyl)isoindoline-1,3-dione] | A (0% ≤ substrate protein remaining % ≤ 80%) | A (0% ≤ substrate protein remaining % ≤ 80%) | 0.5 to 1 | A (0% ≤ substrate protein remaining % ≤ 80%) | A (0% ≤ substrate protein remaining % ≤ 80%) | A (0% ≤ substrate protein remaining % ≤ 80%) | B (80%< substrate protein remaining %≤ 100%) |  |  |  |  |  | 
Cc1nc(C2CCN(Cc3ccc4c(c3)CN(C3CCC(=O)NC3=O)C4=O)CC2)c2c(-c3ccccc3)csc2n1 (stereo not drawn) [GT-05158, 3-(5-((4-(2-methyl-5-phenylthieno[2,3-d]pyrimidin-4-yl)piperidin-1-yl)methyl)-1-oxoisoindolin-2-yl)piperidine-2,6-dione] |  |  | < 0.5 |  |  |  |  | A (0% ≤ substrate protein remaining % ≤ 80%) | B (80%< substrate protein remaining %≤ 100%) | A (0% ≤ substrate protein remaining % ≤ 80%) | B (80%< substrate protein remaining %≤ 100%) | A (0% ≤ substrate protein remaining % ≤ 80%) | B (80%< substrate protein remaining %≤ 100%)
O=C1CCC(N2Cc3cc(CN4CCN(c5cnccn5)CC4)ccc3C2=O)C(=O)N1 (stereo not drawn) [GT-04483, 3-(1-oxo-5-((4-(pyrazin-2-yl)piperazin-1-yl)methyl)isoindolin-2-yl)piperidine-2,6-dione] |  |  | 0.5 to 1 |  |  |  |  | B (80%< substrate protein remaining %≤ 100%) | A (0% ≤ substrate protein remaining % ≤ 80%) | A (0% ≤ substrate protein remaining % ≤ 80%) | A (0% ≤ substrate protein remaining % ≤ 80%) | A (0% ≤ substrate protein remaining % ≤ 80%) | B (80%< substrate protein remaining %≤ 100%)
O=C1CCC(N2Cc3cc(CN4CC(N5CCc6cc(F)ccc65)C4)ccc3C2=O)C(=O)N1 (stereo not drawn) [GT-04677, 3-(5-((3-(5-fluoroindolin-1-yl)azetidin-1-yl)methyl)-1-oxoisoindolin-2-yl)piperidine-2,6-dione] |  |  | < 0.5 |  |  |  |  | A (0% ≤ substrate protein remaining % ≤ 80%) | B (80%< substrate protein remaining %≤ 100%) | A (0% ≤ substrate protein remaining % ≤ 80%) | A (0% ≤ substrate protein remaining % ≤ 80%) | A (0% ≤ substrate protein remaining % ≤ 80%) | A (0% ≤ substrate protein remaining % ≤ 80%)
O=C1CCC(N2Cc3cc(CN4CCC(c5cccc6cnccc56)CC4)ccc3C2=O)C(=O)N1 (stereo not drawn) [GT-04665, 3-(5-((4-(isoquinolin-5-yl)piperidin-1-yl)methyl)-1-oxoisoindolin-2-yl)piperidine-2,6-dione] |  |  | < 0.5 |  |  |  |  | A (0% ≤ substrate protein remaining % ≤ 80%) | A (0% ≤ substrate protein remaining % ≤ 80%) | A (0% ≤ substrate protein remaining % ≤ 80%) | A (0% ≤ substrate protein remaining % ≤ 80%) | A (0% ≤ substrate protein remaining % ≤ 80%) | A (0% ≤ substrate protein remaining % ≤ 80%)
O=C1CCC(N2Cc3cc(CN4CCN(c5ccc(C(F)(F)F)cn5)CC4)ccc3C2=O)C(=O)N1 (stereo not drawn) [GT-04433, 3-(1-oxo-5-((4-(5-(trifluoromethyl)pyridin-2-yl)piperazin-1-yl)methyl)isoindolin-2-yl)piperidine-2,6-dione] |  |  | 1 to 1.5 |  |  |  |  | B (80%< substrate protein remaining %≤ 100%) | B (80%< substrate protein remaining %≤ 100%) | B (80%< substrate protein remaining %≤ 100%) | B (80%< substrate protein remaining %≤ 100%) | A (0% ≤ substrate protein remaining % ≤ 80%) | B (80%< substrate protein remaining %≤ 100%)
O=C1CCC(N2Cc3cc(CN4CCN(c5ncccc5C(F)(F)F)CC4)ccc3C2=O)C(=O)N1 (stereo not drawn) [GT-04434, 3-(1-oxo-5-((4-(3-(trifluoromethyl)pyridin-2-yl)piperazin-1-yl)methyl)isoindolin-2-yl)piperidine-2,6-dione] |  |  | 0.5 to 1 |  |  |  |  | B (80%< substrate protein remaining %≤ 100%) | B (80%< substrate protein remaining %≤ 100%) | B (80%< substrate protein remaining %≤ 100%) | B (80%< substrate protein remaining %≤ 100%) | A (0% ≤ substrate protein remaining % ≤ 80%) | B (80%< substrate protein remaining %≤ 100%)
